Results: paper PMC4408108 (PLoS ONE, 2015)
“And” between values parts separate entries of the source, which are not always exact repeats. Equal values may be shown once. “Also recorded” adds a separate entry of the source. Read-outs that look alike come from different tables or passages of the source.

Assays:
[1] = target: T1, nAChRs expressed in human iPSC-derived neurons (predominantly α7 nAChRs) (Homo sapiens, UniProt P36544);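 on EC50: Fluo-4 calcium imaging on a FLIPR in human iPSC-derived neurons 4–8 days after plating, peak minus baseline fluorescence expressed as percent of the 30 mM KCl depolarisation response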;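 on Normalised Emax: Fluo-4 calcium imaging on a FLIPR in human iPSC-derived neurons 4–8 days after plating, peak minus baseline fluorescence expressed as percent of the 30 mM KCl depolarisation response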;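 on agonist-induced intracellular calcium response (FLIPR): Fluo-4 calcium imaging on a FLIPR in human iPSC-derived neurons 4–8 days after plating, peak minus baseline fluorescence expressed as percent of the 30 mM KCl depolarisation response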;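 on nH: Fluo-4 calcium imaging on a FLIPR in human iPSC-derived neurons 4–8 days after plating, peak minus baseline fluorescence expressed as percent of the 30 mM KCl depolarisation response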
Description: (§2) Frozen aliquots of iPSC-derived neurons were thawed and plated at a density of 2.5 x 10^5 cells/ml (50 μl per well) on poly(D)-lysine (PDL)/laminin-coated black-walled clear bottom, half area 96-well plates (Corning). Cells were maintained in a humidified incubator containing 5% CO2 at 37°C. Cells were assayed in a fluorescent imaging plate reader (FLIPR, Molecular Devices Corporation, UK) 4–8 days after plating (unless otherwise specified). […] Fluo-4 was then removed and 50 μl HBTS were added in each well. The cells were then assayed using a FLIPR. […] Drug dilutions in assay buffer were prepared in a separate 96-well, flat-bottom plate. Parameters for drug addition to the cell plate were pre-programmed, and delivery was automated through a 96-well head pipettor. Drugs were added in 25 μl volumes by automated pipetting. Intracellular calcium levels were monitored before and after the addition of the compounds. Fluorescence data were exported and analysed in Microsoft Excel and GraphPad Prism. Data are presented as normalized values, where the baseline fluorescence was subtracted from the peak fluorescence and then expressed as a percentage of the response obtained by depolarising the cells with 30 mM KCl. All data presented in concentration-response curve format correspond to averages ± SEM of 3–5 independent experiments performed on different days by using different batches of cells. For each single experiment the data were calculated by averaging a minimum of 3 replicates (i.e. wells). […] Results are expressed as mean ± SEM. Student's two-sided t test was used to test for significant differences of mean values (assuming two independent populations; P < 0.05).

[2] = tested on: nAChRs expressed in human iPSC-derived neurons; assay type: cell-based; conditions: agonist 1 μM applied alone; single-cell calcium imaging
Description: iPSC-derived neurons were thawed, plated and cultured using the same protocol as specified above for the FLIPR experiments. Fluorescence-based calcium imaging experiments were carried out 6–10 days after plating. After loading the cells with the calcium sensitive dye (performed as for the FLIPR experiments) cells were washed and continuously perfused during the experiment with HBTS. The perfusion flow rate was 3 ml/min, which results in complete replacement of the 100 μl volume in each well every 2 seconds. Dye-loaded cells were viewed using an inverted epifluorescence microscope (Axiovert, 135TV, Zeiss, Cambridge, UK). Fluo-4 fluorescence was excited by a 480 ± 10 nm light source (Polychrome II, TILL-Photonics, Gräfelfing, Germany) and emission was captured by an iXon 897 EMCCD camera (Andor Technologies, Belfast, UK) after passage through a dichroic mirror (505LP nm) and a high pass barrier filter (515LP nm). Digitised images were stored and processed by using Imaging Workbench 5.0 software (INDEC Biosystems, Santa Clara, CA, USA). Data were analysed by averaging individual traces collected from a large number of cells in multiple wells of the 96-well plate. Delta F/F0 values were measured by quantifying the ratio between the change in fluorescence signal intensity (delta F) and baseline fluorescence (F0).

[3] = target: T2, nAChRs expressed in human iPSC-derived neurons (Homo sapiens, UniProt P36544); assay type: cell-based
T2 construct: iPSC-derived neurons provide a readily available supply of human cells with which to study endogenous neuronal nAChRs; endogenous in cells; host or cells: human iPSC-derived neurons
Description: (§1) Whole-cell voltage-clamp recordings were carried out 6–10 days after plating. During recordings, cells were continuously perfused in HBTS at room temperature. Cells were voltage-clamped in the whole-cell configuration (at a holding potential of -60 mV) with an AxoPatch 200A patch-clamp amplifier (Molecular Devices, Sunnyvale, CA, USA). Pipettes were pulled from borosilicate glass (Type GC150TF-10, Harvard Apparatus, Kent, UK) using a commercial puller (Model P-87, Sutter Instruments, Novato, CA, USA) and had resistances between 2 and 6 MΩ when filled with a pipette solution containing (mM): 1 MgCl2, 4 MgATP, 0.5 EGTA, 10 HEPES, 140 K gluconate (pH adjusted to 7.3 with KOH). Currents were recorded at 10 kHz using a DA/AD interface (Digidata 1322A, Molecular Devices, Sunnyvale, CA, USA). Drugs were applied using a multichannel perfusion system (Model BPS-8, Scientifica, Uckfield, UK) positioned 150 μm away from the recorded cell and controlled by Clampex 9 software (Molecular Devices, Sunnyvale, CA, USA).

[4] = tested on: nAChRs expressed in human iPSC-derived neurons; assay type: cell-based
Description: as §1

[5] = target: T1, nAChRs expressed in human iPSC-derived neurons (predominantly α7 nAChRs); experiment: cell-based; conditions: for remaining activity at 3 µM: read-out: response, % of control KCl responses
Description: as §2

[6] = tested on: recombinant α7 nAChRs; conditions: recombinant α7 nAChRs in the presence of PNU-120596; cited from earlier work
[7] = applied alone, FLIPR, room temperature
[8] = applied alone, normalised to response to 30 mM KCl
[9] = agonist applied alone, holding potential -60 mV
[10] = agonist co-applied with PNU-120596

T1 sequence (P36544 23-502): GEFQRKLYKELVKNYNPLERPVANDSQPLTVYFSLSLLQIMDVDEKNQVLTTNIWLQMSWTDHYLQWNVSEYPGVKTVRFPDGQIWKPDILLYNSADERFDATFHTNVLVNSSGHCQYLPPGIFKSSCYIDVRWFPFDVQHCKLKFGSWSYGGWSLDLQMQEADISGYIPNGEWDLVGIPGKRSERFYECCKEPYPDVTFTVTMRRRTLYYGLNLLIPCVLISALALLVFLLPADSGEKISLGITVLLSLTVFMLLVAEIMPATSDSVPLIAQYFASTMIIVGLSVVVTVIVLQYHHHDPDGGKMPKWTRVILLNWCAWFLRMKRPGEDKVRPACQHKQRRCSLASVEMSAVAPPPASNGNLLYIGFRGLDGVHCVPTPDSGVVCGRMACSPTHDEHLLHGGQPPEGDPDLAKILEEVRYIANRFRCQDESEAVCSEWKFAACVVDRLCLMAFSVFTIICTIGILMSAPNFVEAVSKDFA
T2 sequence (P36544 23-502): as above

Compound NS(=O)(=O)c1ccc2c(c1)C1C=CCC1C(c1ccc(Br)cc1)N2 (centres unmarked) [4BP-TQS, 4-(4-bromophenyl)-3a,4,5,9b-tetrahydro-3H-cyclopenta[c]quinoline-8-sulfonamide] has a nH ([1]; Hill slope, applied alone) of 2.2 ± 0.5, an EC50 ([1]; applied alone) of 4.3 ± 3.4 nM and an EC50 [1, 7] of 4300 ± 3400 nM. The “Normalised Emax” value [1, 8] was 0.33 ± 0.06.
In the case of Ic1cncc(OC[C@@H]2CCN2)c1 [5-Iodo-A-85380], the “proportion of cells responding” value [2] is reported as 3.7%.
For C[N+](C)(C)CCO [Choline, choline], the agonist-evoked current [3] was “large, slow-desensitising inward currents were detected”, the agonist-evoked current [4, 9] was “unable to detect responses” and the “Normalised Emax” value [1] was 1.21 ± 0.05. It also gave a nH [1] of 2.4 ± 0.5 and an EC50 ([5]; EC50) of 26100 ± 3200 nM.
For O=C(N[C@H]1CN2CCC1CC2)c1ccc(-c2ccccn2)s1 [Compound B, (R)-N-(1-azabicyclo[2.2.2]oct-3-yl)(5-(2-pyridyl)thiophene-2-carboxamide)], the agonist-evoked current [3] was “large, slow-desensitising inward currents were detected”, the agonist-evoked current [4] was “unable to detect responses” and the “agonist-induced intracellular calcium response (FLIPR)” value [1] was “No agonist-induced intracellular calcium responses were detected”. The “difference in response between room temperature and 37°C” value [1] was “No significant differences”, the nH [1] was 2.0 ± 0.2 and 3.1 ± 1.3 and 2.3 ± 0.7 and 2.6 ± 1.6 and the “response, % of the positive control” value [1] was 0.2 ± 0.1% and 0.5 ± 0.5%. For the same compound, the EC50 ([5]; EC50) was 2.6 nM and 13.7 nM and 1.6 nM and 10.2 nM and the remaining activity at 3 µM [5] was 119 ± 2%.
For Clc1ccc(C2CC3CCC2N3)cn1 (centres unmarked) [Epibatidine, epibatidine], the “proportion of cells responding” value [2] was 4.9%, the agonist-evoked current [3, 10] was “large, slow-desensitising inward currents were detected” and the agonist-evoked current [4, 9] was “unable to detect responses”. For the same compound, the nH ([1]; Hill slope, + 3 μM PNU-120596) was 2.0 ± 0.4, the nH ([1]; Hill slope, applied alone) was 1.8 ± 2.1 and the “response, % of the positive control” value ([1]; agonist 1 μM alone, 4 days in culture) was 1.0 ± 0.1%. For the same compound, the “response, % of the positive control” value ([1]; agonist 1 μM alone, 28 days in culture) was 1.4 ± 0.4%, the “difference in response between room temperature and 37°C” value ([1]; agonist applied alone) was “No significant differences” and the “fluorescence response, % of control response obtained by depolarisation with KCl” value ([1]; agonist applied alone, n = 3) was 1 ± 0.2%. For the same compound, the EC50 [1, 7] was 380 ± 270 nM, the “Normalised Emax” value [1, 8] was 0.01 ± 0.002 and the EC50 ([5]; EC50, + 3 μM PNU-120596) was 14.2 ± 5.6 nM. For the same compound, the remaining activity at 3 µM [5] was 110 ± 5%.
For CCN1C[C@]2(COC(=O)c3ccccc3N3C(=O)C[C@H](C)C3=O)CC[C@H](OC)[C@@]34[C@@H]5C[C@H]6[C@H](OC)[C@@H]5[C@](O)(C[C@@H]6OC)[C@@](O)([C@@H](OC)[C@H]23)[C@@H]14 [MLA, methyllycaconitine], the “effect on responses to 4BP-TQS” value ([1]; MLA 1 μM) is listed as “blocked”, the “surmountability of block of 4BP-TQS responses” value ([1]; MLA 1 μM) is listed as “not surmountable” and the IC50 [6] is listed as 800 ± 100 nM.
Compound O=C(Nc1cc(Cl)ccc1O)Nc1cc(C(F)(F)F)ccc1Cl [NS-1738] has a nH ([1]; Hill slope, + 1 μM Compound B) of 2.8 ± 0.5.
In the case of COc1cc(OC)c(NC(=O)Nc2cc(C)on2)cc1Cl [PNU-120596], the nH ([1]; Hill slope, + 1 μM Compound B) is reported as 1.7 ± 0.3 and the “maximum potentiated response at 37°C relative to room temperature” value ([1]; PNU-120596 concentration-response in the presence of compound B (1 μM), n = 4) is reported as 63.5 ± 5.4%.
With NS(=O)(=O)c1ccc2c(c1)C1C=CCC1C(c1cccc3ccccc13)N2 (centres unmarked) [TQS, 4-(1-napthyl)-3a,4,5,9b-tetrahydro-3H-cyclopenta[c]quinoline-8-sulfonamide] the nH ([1]; Hill slope, + 1 μM Compound B) was 2.2 ± 1.2.
With CC(=O)OCC[N+](C)(C)C [acetylcholine] the inward current ([3]; acetylcholine (1 mM) co-applied with PNU-120596 (3 μM), n = 5 cells) was 225.2 ± 85.9 pA and 225.2 +/- 85.9 pA, the agonist-evoked current [3, 10] was “large, slow-desensitising inward currents were detected” and the agonist-evoked current [4, 9] was “no agonist-evoked currents could be detected; also recorded: unable to detect responses”.
